Assays:
[1] = tested on: A549; experiment: Antiproliferative activity against human A549 cells by CCK8 assay; format: functional, cell-based
[2] = tested on: MGC-803; experiment: Antiproliferative activity against human MGC-803 cells by CCK8 assay; format: functional, cell-based
[3] = tested on: KYSE-30; experiment: Antiproliferative activity against human KYSE-30 cells by CCK8 assay; format: functional, cell-based
[4] = tested on: MCF7; experiment: Antiproliferative activity against human MCF7 cells by CCK8 assay; format: functional, cell-based
[5] = target: T1, NEDD8-activating enzyme E1 regulatory subunit (Homo sapiens, UniProt Q13564); experiment: Inhibition of NAE (unknown origin)
T1 sequence (Q13564 whole entry): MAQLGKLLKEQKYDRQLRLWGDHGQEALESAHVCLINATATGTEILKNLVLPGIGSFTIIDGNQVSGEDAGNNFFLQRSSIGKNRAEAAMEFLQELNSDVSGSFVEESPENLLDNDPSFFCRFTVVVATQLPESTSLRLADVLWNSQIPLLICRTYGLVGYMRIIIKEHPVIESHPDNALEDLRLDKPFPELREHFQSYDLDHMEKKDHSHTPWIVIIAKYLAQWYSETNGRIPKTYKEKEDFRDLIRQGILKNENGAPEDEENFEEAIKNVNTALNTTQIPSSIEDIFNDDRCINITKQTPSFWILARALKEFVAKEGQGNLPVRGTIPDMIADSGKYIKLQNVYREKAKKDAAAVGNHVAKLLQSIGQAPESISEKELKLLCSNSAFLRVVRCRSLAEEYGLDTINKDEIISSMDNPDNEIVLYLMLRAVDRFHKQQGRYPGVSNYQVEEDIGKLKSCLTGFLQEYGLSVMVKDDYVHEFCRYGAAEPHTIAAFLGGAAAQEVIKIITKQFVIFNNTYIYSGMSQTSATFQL

With `COc1cc(C(=O)Nc2nc3ccc(NC(=O)C4CCN(Cc5ccccc5)CC4)cc3s2)cc(OC)c1OC` the IC50 [1] was 5.6 µM, the IC50 [2] was 4.96 µM and the IC50 [3] was 1.08 µM. The IC50 [4] was 4.15 µM.

`O=C(Nc1nc2ccc(NC(=O)C3CCN(Cc4ccccc4)CC3)cc2s1)c1ccc2ccccc2c1` gave an IC50 [1] of 7.25 µM, an IC50 [2] of 8.76 µM and an IC50 [3] of 3 µM. It also gave an IC50 [4] of 11.9 µM.

`CCCc1ccc(C(=O)Nc2nc3ccc(NC(=O)C4CCN(Cc5ccccc5)CC4)cc3s2)cc1` was tested, and the IC50 [1] was 1.28 µM, the IC50 [2] was 1.87 µM and the IC50 [3] was 0.91 µM. The IC50 [4] was 1.55 µM.

Work on `O=C(Nc1nc2ccc(NC(=O)C3CCN(Cc4ccccc4)CC3)cc2s1)c1ccc(F)c(F)c1` yielded an IC50 [1] of 5.58 µM, an IC50 [2] of 6.85 µM and an IC50 [3] of 1.82 µM. The IC50 [4] was 8.54 µM.

With `O=C(Nc1nc2ccc(NC(=O)C3CCN(Cc4ccccc4)CC3)cc2s1)c1cccc(F)c1` the IC50 [1] was 4.94 µM, the IC50 [2] was 13 µM and the IC50 [3] was 1.71 µM. The IC50 [4] was 7.32 µM.

`CCCC(=O)Nc1nc2ccc(NC(=O)C3CCN(Cc4ccccc4)CC3)cc2s1` showed an IC50 [1] of 29.1 µM, an IC50 [2] of 30.1 µM and an IC50 [3] of 22.7 µM. For the same compound, the IC50 [4] was 37.5 µM.

`O=C(Nc1nc2ccc(NC(=O)C3CCN(Cc4ccccc4)CC3)cc2s1)c1ccc2c(c1)OCO2` showed an IC50 [1] of 1.35 µM, an IC50 [2] of 1.85 µM and an IC50 [3] of 1.33 µM. It also gave an IC50 [4] of 1.63 µM.

With `O=C(Nc1nc2ccc(NC(=O)C3CCN(Cc4ccccc4)CC3)cc2s1)c1ccco1` the IC50 [1] was 4.25 µM, the IC50 [2] was 5.09 µM and the IC50 [3] was 7.41 µM. The IC50 [4] was 7.46 µM.

`NS(=O)(=O)OC[C@@H]1C[C@@H](n2ccc3c(N[C@H]4CCc5ccccc54)ncnc32)C[C@@H]1O` [PEVONEDISTAT] showed an IC50 [1] of 1.64 µM, an IC50 [2] of 1.84 µM and an IC50 [3] of 3.75 µM.

`Nc1ccc(SCC(=O)Nc2ccc3nc(NC(=O)c4ccc(C(F)(F)F)cc4)sc3c2)cc1` showed an IC50 [1] of 41.2 µM, an IC50 [2] of 4.91 µM and an IC50 [3] of 17.4 µM. It also gave an IC50 [4] of over 100 µM.

`O=C(Nc1nc2ccc(NC(=O)C3CCN(Cc4ccccc4)CC3)cc2s1)c1cccnc1` was tested, and the IC50 [1] was 20.4 µM, the IC50 [2] was 25.6 µM and the IC50 [3] was 19.6 µM. For the same compound, the IC50 [4] was 23.9 µM.

`O=C(Nc1ccc2nc(NC(=O)C3COc4ccccc4O3)sc2c1)C1CCN(Cc2ccccc2)CC1` (stereo not given) gave an IC50 [1] of 11.4 µM, an IC50 [2] of 11 µM and an IC50 [3] of 13.8 µM. The IC50 [4] was 11.7 µM.

`CCOc1cccc(F)c1C#Cc1cn([C@H]2O[C@@H](CNS(N)(=O)=O)[C@H](O)[C@@H]2O)c2ncnc(N)c12` showed an IC50 [5] of 0.004 µM.

Compound `O=C(Nc1nc2ccc(NC(=O)C3CCN(Cc4ccccc4)CC3)cc2s1)c1ccccc1F` has an IC50 [1] of 5.26 µM, an IC50 [2] of 12.9 µM and an IC50 [3] of 2.29 µM. The IC50 [4] was 11.4 µM.

`O=C(Nc1nc2ccc(NC(=O)C3CCN(Cc4ccccc4)CC3)cc2s1)c1ccc(-c2ccccc2)cc1` showed an IC50 [1] of 8.13 µM, an IC50 [2] of 7.84 µM and an IC50 [3] of 2.88 µM. It also gave an IC50 [4] of 10.7 µM.

`O=C(Nc1nc2ccc(NC(=O)C3CCN(Cc4ccccc4)CC3)cc2s1)c1sccc1F` was tested, and the IC50 [1] was 1.99 µM, the IC50 [2] was 2.8 µM and the IC50 [3] was 2.03 µM. The IC50 [4] was 2.35 µM.

With `O=C(Nc1nc2ccc(NC(=O)C3CCN(Cc4ccccc4)CC3)cc2s1)c1cscn1` the IC50 [1] was 1.19 µM, the IC50 [2] was 1.69 µM and the IC50 [3] was 0.73 µM. The IC50 [4] was 0.98 µM.

For `O=C(Nc1nc2ccc(NC(=O)C3CCN(Cc4ccccc4)CC3)cc2s1)c1ccccc1`, the IC50 [1] was 4.33 µM, the IC50 [2] was 10.9 µM and the IC50 [3] was 3.22 µM. It also gave an IC50 [4] of 4.17 µM.

For `O=C(Nc1nc2ccc(NC(=O)C3CCN(Cc4ccccc4)CC3)cc2s1)c1ccc(C(F)(F)F)cc1`, the IC50 [1] was 6.29 µM, the IC50 [2] was 8.53 µM and the IC50 [3] was 1.25 µM. It also gave an IC50 [4] of 4.58 µM.

Work on `O=C(Nc1nc2ccc(NC(=O)C3CCN(Cc4ccccc4)CC3)cc2s1)c1cccs1` yielded an IC50 [1] of 1.7 µM, an IC50 [2] of 2.77 µM and an IC50 [3] of 1.64 µM. For the same compound, the IC50 [4] was 3.24 µM.

In the case of `O=C(Nc1nc2ccc(NC(=O)C3CCN(Cc4ccccc4)CC3)cc2s1)c1ccc(F)cc1`, the IC50 [1] is reported as 4.51 µM, the IC50 [2] is reported as 12.7 µM and the IC50 [3] is reported as 1.08 µM. It also gave an IC50 [4] of 5.74 µM.

`COc1ccccc1/C=C1\SC(=O)N(CCC(=O)Nc2ccc(S(N)(=O)=O)cc2)C1=O` gave an IC50 [5] of 12 µM.

Compound `O=C(Nc1nc2ccc(NC(=O)C3CCN(Cc4ccccc4)CC3)cc2s1)c1ccc(Cl)o1` has an IC50 [1] of 2.82 µM, an IC50 [2] of 1.75 µM and an IC50 [3] of 1.9 µM. The IC50 [4] was 1.88 µM.

Compound `Cc1ccc(C(=O)Nc2nc3ccc(NC(=O)C4CCN(Cc5ccccc5)CC4)cc3s2)cc1` has an IC50 [1] of 2.18 µM, an IC50 [2] of 3.82 µM and an IC50 [3] of 1.19 µM. For the same compound, the IC50 [4] was 2.78 µM.

`O=C(Nc1nc2ccc(NC(=O)C3CCN(Cc4ccccc4)CC3)cc2s1)c1sccc1Br` showed an IC50 [1] of 2.47 µM, an IC50 [2] of 3.31 µM and an IC50 [3] of 2.63 µM. For the same compound, the IC50 [4] was 2.89 µM.

`O=C(Nc1nc2ccc(NC(=O)C3CCN(Cc4ccccc4)CC3)cc2s1)c1ccc(F)cc1Cl` gave an IC50 [1] of 3.77 µM, an IC50 [2] of 10.7 µM and an IC50 [3] of 2.08 µM. The IC50 [4] was 15.9 µM.

`C/C=C/C(=O)Nc1nc2ccc(NC(=O)C3CCN(Cc4ccccc4)CC3)cc2s1` showed an IC50 [1] of 12.8 µM, an IC50 [2] of 15.7 µM and an IC50 [3] of 17.7 µM. For the same compound, the IC50 [4] was 11.9 µM.

In the case of `N#Cc1ccc(C(=O)Nc2nc3ccc(NC(=O)C4CCN(Cc5ccccc5)CC4)cc3s2)cc1`, the IC50 [1] is reported as 3.31 µM, the IC50 [2] is reported as 4.74 µM and the IC50 [3] is reported as 1.41 µM. The IC50 [4] was 13.1 µM.
